According to US12534699B2, “Method for promoting growth of bacteria of genus Bifidobacterium” (KABUSHIKI KAISHA YAKULT HONSHA, priority 2019, dated 2026):

System: Bifidobacterium bifidum YIT 10347 (BF-1)
Test: Culture of BF-1 in skimmed milk culture medium with L-cystine or L-cysteine
Assay type: cell-based
Conditions: for viable cell count and acidity versus culture medium not containing L-cystine and L-cysteine: BF-1, simultaneous heating culture medium (skimmed milk or whey), 0.001 to 0.1% (w/v), FIGS. 5 and 6; for concentration at which the viable cell count was maximum: BF-1, skimmed milk simultaneous heating culture medium, 12 hours
Protocol: Bifidobacterium breve YIT 12272 (hereinafter, referred to as BbY), Bifidobacterium bifidum YIT 10347 (hereinafter, referred to as BF-1), Lactobacillus casei YIT 9029 (hereinafter, referred to as YIT 9029), and Lactobacillus acidophilus YIT 0198 (hereinafter, referred to as YIT 0198) were used.
A skimmed milk powder (ABC, manufactured by MEGMILK SNOW BRAND Co., Ltd.) was dissolved in RO water at 12% (w/v), the solution was dispensed in 10 mL aliquots in a rimmed medium-sized test tube while replacing the headspace with nitrogen gas and sealed with a butyl rubber stopper. Subsequently, the solution was sterilized by heat in an autoclave (SX-500, manufactured by Tomy Seiko Co., Ltd.) at 115° C. for 30 minutes to provide a skimmed milk culture medium (additive-free culture medium). In addition, a skimmed milk culture medium (simultaneous heating culture medium) was prepared in anaerobic conditions by adding an L-cystine (manufactured by Kyowa Hakko Bio Co., Ltd.) aqueous suspension or an L-cysteine hydrochloride (manufactured by Nichiri Kagaku Co., Ltd.) aqueous solution to a skimmed milk culture medium at a final concentration of 0.05 (w/v) % and performing heat sterilization after the addition of the suspension or the solution, and a skimmed milk culture medium (individual heating culture medium) was prepared in anaerobic conditions by adding the suspension or the solution to a skimmed milk culture medium at a final concentration of 0.05 (w/v) % after heat sterilization and immediately before inoculation. Here, the L-cystine aqueous suspension and the L-cysteine hydrochloride aqueous solution were prepared as a 5% (w/v) aqueous suspension and a 5% (w/v) aqueous solution, respectively, and were added to each culture medium at an amount of 1% (v/v). In order to unify the changes in the concentration and the changes in the redox potential of samples due to the addition of the solution, 1% (v/v) of sterilized water was added to the simultaneous heating culture medium immediately before inoculation, to the individual heating culture medium before heating, and to the additive-free culture medium before heating and immediately before inoculation, i.e., twice.
When bacteria were inoculated, inoculation was performed while replacing the headspace of the container with nitrogen gas, and the nitrogen gas was sealed with a butyl rubber stopper, followed by culture. The culture was performed in a thermostat water bath set to 37° C. for 12 hours.
The pH of a culture medium or a bacterial solution was measured using a desk-top pH meter (F52, manufactured by HORIBA, Ltd.).
The amount of a 0.1 N sodium hydroxide aqueous solution for 9.0 g of a bacterial solution required to reach a pH of 8.5 was defined as acidity. The measurement was performed using an automatic titrator (manufactured by HIRANUMA Co., Ltd.).
Regardless of the bacterial strain, a bacterial solution was appropriately diluted with a 0.85% (w/v) sodium chloride aqueous solution (physiological saline solution). The diluted bacterial solution was inoculated with a spiral plater EDDY JET (manufactured by IUL Instruments GmbH) on a plate culture medium of TOS propionate agar medium (manufactured by Yakult Pharmaceutical Industry Co., Ltd.) in the case of bacteria of the genus Bifidobacterium and a plate culture medium of BCP Added Plate Count medium (manufactured by EIKEN CHEMICAL CO., LTD.) in the case of bacteria of the genus Lactobacillus, followed by culture at 37° C. for 48 to 72 hours. The grown colonies were counted as the viable cell count. The bacteria of the genus Lactobacillus were cultured in aerobic conditions, and the bacteria of the genus Bifidobacterium were cultured in anaerobic conditions (Anaero Pack, manufactured by MITSUBISHI GAS CHEMICAL COMPANY, INC.). Colonies were counted using a colony counter ProtoCOL (manufactured by Synoptics Ltd.).
As in Example 1, each simultaneous heating culture medium of milk and L-cystine or L-cysteine was prepared. […]

[1] = BF-1, skimmed milk, 0.05 (w/v) %, cultured 12 hours

Row | SMILES | viable cell count and acidity versus culture medium not containing L-cystine and L-cysteine | concentration at which the viable cell count was maximum | acidity higher with simultaneous heating than individual heating [1] [times] | viable cell count higher with simultaneous heating than individual heating [1] [times]
1 | Cl.N[C@@H](CS)C(=O)O [L-cysteine, L-cysteine hydrochloride] | increased | 0.05 % (w/v) |  | 
2 | N[C@@H](CSSC[C@H](N)C(=O)O)C(=O)O [L-cystine] | increased | 0.1 % (w/v) | 1.3 | 4.5
